# PubChem BioAssay AID1996
# Conditions: buffer; pH 7.4; 200.0 µM
row,SMILES,solubility kinetic [mg/mL]
1,O=C(Cc1c[nH]c2ccccc12)NCc1ccco1,> 0.0381
2,O=C(COC(=O)c1ccc([N+](=O)[O-])o1)Nc1ccc(N2CCOCC2)cc1,0.0506
3,COc1cnc(-c2ccccc2)nc1Oc1ccc(Cl)cc1C,< 0.0003
4,CC(C)C(NC(=O)c1ccco1)C(=O)NC1CCCCCC1 (stereo not given),0.0378
5,Cc1cc(SCc2ccc([N+](=O)[O-])cc2)nc(=O)[nH]1,0.0242
6,CCc1nc2ccc(C(=O)N(C)CC(=O)Nc3ccccc3C(F)(F)F)cc2nc1CC,0.0276
7,Nc1nc(NCc2ccc(Cl)cc2)nc(NCCO)c1[N+](=O)[O-],0.0459
8,COc1cccc(C(=O)C2CN(C)CC2c2ccc(Cl)cc2)c1 (stereo not given),> 0.0495
9,O=C(Cc1c[nH]c2ccccc12)Nc1ccc(N2CCOCC2)cc1,0.0101
10,CCCCOC(=O)c1ccc(OC(=O)N2CCOCC2)cc1,> 0.0461
11,CC1(C)C(CC2OCC(CN3CCCCC3)O2)[C@H]2CC[C@@H]1C2 (stereo not given in full),0.0259
12,COc1ccc2[nH]cc(/C=C/C(=O)c3ccccc3)c2c1,0.0029
13,CCc1ccc2[nH]c(=O)c(Cc3ccccc3)c(O)c2c1,> 0.0419
14,Cc1ccccc1NC(=S)N1CCN(c2ccccc2C)CC1,0.0006
15,COc1ccc(NC(=S)Nc2cccnc2)c(OC)c1,0.0425
16,Cc1noc(C)c1S(=O)(=O)Nc1ccccc1OC(F)(F)F,0.0486
17,O=[N+]([O-])c1ccc(COP(=O)([O-])OCc2ccc([N+](=O)[O-])cc2)cc1.[Na+],0.0582
18,O=C(NC1CCCCCCC1)c1cc([N+](=O)[O-])ccc1Cl,0.0085
19,Cc1csc(=O)n1CC(=O)Nc1ccc(S(C)(=O)=O)cc1,> 0.049
20,CC(OC(=O)C1CC1)C(=O)Nc1cc(Cl)cc(Cl)c1 (stereo not given),> 0.0453
21,CC1(C)C2([N+](=O)[O-])CN3CC1([N+](=O)[O-])CN(C2)C3c1ccccn1 (stereo not given),0.0079
22,Cc1ccc(Nc2nc(C)cc(C)c2C(N)=O)c(C)c1,> 0.0404
23,CC(=O)Oc1ccccc1-c1nc(/C=C/c2ccccc2)no1,< 0.0003
24,OCCN(CCO)c1nc(N2CCCCC2)c2nc(N(CCO)CCO)nc(N3CCCCC3)c2n1,0.0107

row,SMILES,solubility kinetic [mg/mL]
1,O=C(O)c1cccc2c3c([nH]c12)CCCC3,> 0.0323
2,Cc1ccc2c(CN(C)Cc3ccc(Cl)cc3)cc(=O)oc2c1,0.0019
3,Cc1cccnc1NC(=O)CCNC(=O)c1ccc(Br)cc1,> 0.0543
4,Cc1cccc(Nc2nc(N3CCOCC3)nc(N3CCOCC3)n2)c1,0.0349
5,Cc1cc(=O)[nH]c(SCC(=O)N2CCN(C(=O)c3ccco3)CC2)n1,> 0.0544
6,Nc1cccnc1Oc1ccccc1F,> 0.0306
7,COc1ccc(S(=O)(=O)NCC(=O)NC2CC2)cc1OC,> 0.0472
8,COc1cccc(NC(=O)c2ccc3c(c2)OCCO3)c1,> 0.0428
9,Cc1ccc(NC(=O)CNC(=O)c2ccco2)cc1,> 0.0387
10,O=C(Cc1ccccc1)Nc1ccc(Cl)cn1,0.0215
11,CCC(C)NC(=O)Cn1c(=O)sc2ccccc21 (stereo not given),0.0336
12,N#Cc1c(-c2cccs2)cc(-c2cccs2)[nH]c1=O,0.0007
13,Cc1cnc(C(=O)NCCc2ccc(C(F)(F)F)cc2)cn1,0.0119
14,COc1cc(C(=O)O)ccc1OCc1ccncc1,> 0.0389
15,CCc1ccc(S(=O)(=O)NC2CCCCNC2=O)cc1 (stereo not given),> 0.0445
16,OCCNCC12CC3CC(CC(C3)C1)C2,0.0264
17,O=C(Nc1cccc2cccnc12)c1ccc(Cl)cc1,< 0.0003
18,O=C(Cn1c(=O)[nH]c2ccccc2c1=O)Nc1cccnc1,> 0.0444
19,CCOC(=O)c1c(C)n(C(C)C)c2ccc(OC)cc12,0.0151
20,CCc1ccc(CN2CCC(CO)(CC3CCCCO3)CC2)o1 (stereo not given),0.0381
21,CC(=O)c1ccc(NC(=S)NCC(c2ccco2)N2CCCC2)cc1 (stereo not given),0.0525
22,C=CCn1cccc(C(=O)Nc2ccc(N(C)C)cc2)c1=O,> 0.0446
23,O=C(NC(=S)N1CCN(c2ccccc2)CC1)c1ccccc1,0.0064
24,O=c1[nH]c2ccccc2nc1NCc1ccccc1,0.0039

row,SMILES,solubility kinetic [mg/mL]
1,N/C(Cc1nc(-c2ccc(F)cc2)cs1)=N\O,0.0364
2,CCCc1cc(=O)[nH]c(SCC(=O)Nc2ccc(C)cc2)n1,0.0031
3,Cc1cccn2cc(-c3cccc(NC(=O)c4cccs4)c3)nc12,0.0055
4,Cc1ccc(C)c(NC2=C(Cl)C(=O)OC2OC(C)C)c1 (stereo not given),0.0108
5,O=C(NN=Cc1cc(Br)c(O)c(Br)c1)c1ccccc1NS(=O)(=O)c1cccs1,> 0.0839
6,CN1CCC(CO)(Cc2ccccc2)CC1,0.0286
7,COCCCNC(=O)[C@H]1N2C(=O)c3ccccc3C2SC1(C)C (stereo not given in full),0.0454
8,Cl.Fc1cccc(C2NCc3ccccc3-n3cccc32)c1 (stereo not given),0.0306
9,O=C(COC(=O)c1cc(S(=O)(=O)N2CCOCC2)ccc1F)NCCc1ccc(F)cc1,> 0.0703
10,COc1ccc(Br)cc1/C=C/C(=O)NCC(=O)O,> 0.0471
11,COc1ccc(/C=C/C(=O)OCC(=O)NC2CC2)c(OC)c1,> 0.0458
12,Cc1ccc(-c2cc(C(=O)NC3CCCCC3)no2)cc1,< 0.0003
13,COc1cc(OC)cc(C(=O)NC2CCSc3ccccc32)c1 (stereo not given),0.0039
14,O=[N+]([O-])c1ccccc1/C=C/CN1CCSCC1,0.0292
15,CC(=O)Nc1ccc(-c2cc(C(=O)O)c3ccccc3n2)cc1,0.0428
16,O=C(NCc1cccnc1)c1ccc(Br)s1,> 0.0446
17,O=C(Cc1cccc2ccccc12)NCCc1ccccc1,0.0071
18,Cl.N=c1ccn(Cc2c(Cl)cccc2Cl)cc1,> 0.0434
19,CC(=O)NCCc1nc2ccccc2n1Cc1ccc(Cl)cc1,> 0.0492
20,CC(C)N(CCn1cnc2c([nH]c3ccccc32)c1=O)C(C)C,0.0245
21,Nc1c(C(=O)CSc2ccccn2)c(=O)[nH]c(=O)n1C1CC1,0.0246
22,CN(C/C=C/c1ccccc1[N+](=O)[O-])Cc1ccccc1,0.0192
23,O=C(CN1C(=O)NC2(CCCC2)C1=O)Nc1nc(-c2ccccc2)cs1,0.0017
24,Cc1ccc2oc(=O)c(/C=C(\O)c3ccccc3)nc2c1,0.0368

row,SMILES,solubility kinetic [mg/mL]
1,Cc1ccc2c(=O)[nH]c(Nc3nc(C)cc(-c4ccccc4)n3)nc2c1,< 0.0001
2,Cc1cccc(C(=O)OCC(=O)N2CCCC2=O)c1O,> 0.0416
3,Cl.NOCC(=O)O,> 0.0164
4,Cc1ccc(N2C(=O)C3CCC(C)(C2=O)C3(C)C)cc1C (stereo not given),0.0323
5,Cc1ccc(C(=O)NCc2ccco2)cc1,> 0.0323
6,CC(C)(C)CC(=O)N1CCN(Cc2ccc3c(c2)OCO3)CC1,> 0.0478
7,CN1C(=O)c2ccc(NC(=O)c3ccc(Cl)cc3Cl)cc2C1=O,0.0021
8,CCOC(=O)c1sc(NC(=O)c2ccc(OC(C)=O)cc2)nc1C,0.0007
9,O=C(COc1ccc(Cl)cc1)NCCNC(=O)c1ccccn1,0.0476
10,COC(=O)c1sccc1NC(=O)Nc1ccccc1Cl,0.0258
11,NC1=C(c2ccccc2)C(=O)NC1=O,> 0.0282
12,C/C=C(\C)CN1CCCC(CO)(Cc2ccccc2)C1 (stereo not given),0.0343
13,CN(C)c1ccc(/C=C/C#N)cc1,0.0054
14,Cc1cc(NC(=O)c2ccc(Cl)c([N+](=O)[O-])c2)no1,0.0008
15,CC(=O)N1CCN(Cc2nc3cc(Cl)ccc3c(=O)[nH]2)CC1,> 0.0481
16,CC(=O)N1CCN(c2ccc(NC(=O)c3ccco3)cc2)CC1,> 0.047
17,O=C(NCc1ccco1)c1ccccc1O,0.0229
18,O=[N+]([O-])c1ccc2oc(C(O)c3cccc(Cl)c3)cc2c1 (stereo not given),0.0194
19,O=C(CNC(=O)Cc1cccc2ccccc12)NCc1ccccc1F,0.0365
20,Cc1nc2cc(NS(=O)(=O)c3cccc(F)c3)ccc2s1,> 0.0484
21,O=C(CN1CCCCCC1)Nc1ccccc1OC(F)F,0.0445
22,COC(=O)c1ccccc1NC(=O)CN1CCCCCC1,0.0316
23,CSc1ncccc1C(=O)OCC(=O)NCCCc1ccccc1,0.0206
24,CC(C(=O)Nc1ccccc1)N(C)Cc1cccs1 (stereo not given),0.0336

row,SMILES,solubility kinetic [mg/mL]
1,COC(=O)CCC(=O)c1ccn(S(=O)(=O)c2ccccc2)c1,0.0446
2,COc1cc(CNc2ncnc3c2[nH]c2ccc(C)cc23)cc(OC)c1,0.0007
3,COc1cc2ccccc2cc1C(=O)NCc1ccncc1,> 0.0439
4,COc1ccccc1-n1ccnc1SCC(=O)NC1CCCC1,0.0453
5,Cc1cc(C(=O)COC(=O)c2cccnc2Cl)c(C)n1C,0.013
6,Cc1cccc(NC(=O)Nc2ccc(Cl)c(Cl)c2)n1,< 0.0002
7,COc1ccc2c(c1OC)C(=O)N(c1ccc(O)cc1)C2=O,0.0414
8,COCCCn1c(=O)c2sccc2n(Cc2ccccc2C)c1=O,> 0.0517
9,CC1CCC(NS(=O)(=O)c2ccc(Cl)nc2)CC1 (stereo not given),0.0339
10,Cc1cccc(C)c1NC(=S)N(CCc1ccncc1)C(C)C,0.0456
11,CCCCCSc1ncccc1C(=O)O,> 0.0338
12,Cc1cc(C)cc(Nc2ccc(C(=O)O)cc2[N+](=O)[O-])c1,> 0.0429
13,CC(NC(=O)C(C)(C)C)C(c1cccs1)N1CCOCC1 (stereo not given),> 0.0466
14,Cc1ccc(S(=O)(=O)Nc2nc(-c3ccccc3)cs2)cc1,> 0.0496
15,O=C(O)CCC(=O)N(Cc1ccco1)C1CC(=O)N(c2ccccc2)C1=O (stereo not given),> 0.0556
16,COC(=O)c1ccc(CN2CCCCC2)cc1,0.0289
17,Cc1cc(C(=O)Nc2ccon2)c(C)o1,> 0.0309
18,O=C(C1CC1)N1CCN(c2ccc(O)cc2)CC1,> 0.0369
19,CCOC(=O)c1sc(Nc2ccc(OCC)cc2)nc1C,0.0009
20,N#Cc1ccc(CN2CCN(C(=O)C3CC(=O)N(c4ccccc4F)C3)CC2)cc1 (stereo not given),> 0.061
21,O=C(Nc1ccccc1O)c1ccc2c(c1)C(=O)N(Cc1ccco1)C2=O,0.0013
22,O=C(NCCCNC(=O)c1cnccn1)c1cccc(F)c1,0.0402
23,Cc1ccccc1CNC(=O)C1CCCN(c2cnccn2)C1 (stereo not given),0.0443
24,Cc1cccc(-n2c(C)cc(C(=S)N3CCOCC3)c2C)c1C,0.0282
